From publication PMC2582943 (Antiviral Research, 2008)
“And” between values parts separate entries of the source, which are not always exact repeats. Equal entries are not always repeated. “Also recorded” adds a separate entry of the source. Structures can show the parent of a compound that is named as a salt. Where two headings read alike, the source gives them in different places. Peptide text beside a SMILES is read from it.

How the values were obtained:
[1] = tested on: SARS-CoV (strain Urbani); assay: microbe, parasite or virus in culture; type: cell-based
[2] = tested on: SARS-CoV (strain Urbani); assay: microbe, parasite or virus in culture; type: cell-based; remark: listed apart in the source
[3] = tested on: Vero 76 cells; assay: cells; type: cell-based, African green monkey
[4] = tested on: SARS-CoV Frankfurt-1 strain; assay: microbe, parasite or virus in culture; type: cell-based
[5] = tested on: SARS-CoV CHUK-W1 strain; assay: microbe, parasite or virus in culture; type: cell-based
[6] = tested on: SARS-CoV Toronto-2 strain; assay: microbe, parasite or virus in culture; type: cell-based
[7] = tested on: SARS-CoV Frankfurt-1 strain; assay: microbe, parasite or virus in culture; type: cell-based; remark: listed apart in the source
[8] = tested on: SARS-CoV CHUK-W1 strain; assay: microbe, parasite or virus in culture; type: cell-based; remark: listed apart in the source
[9] = tested on: SARS-CoV Toronto-2 strain; assay: microbe, parasite or virus in culture; type: cell-based; remark: listed apart in the source
[10] = tested on: SARS-CoV
[11] = tested on: SARS-CoV (Urbani); parameters: species or system BALB/c mice; conditions: mouse, in vivo
[12] = tested on: BALB/c mice; conditions: mouse, in vivo, ip
[13] = tested on: lungs; conditions: mouse, in vivo
[14] = tested on: mice; conditions: mouse, in vivo, ip; cited from earlier work
[15] = read-out: Neutral red uptake assay EC50
[16] = read-out: Virus yield reduction assay EC90
[17] = read-out: Neutral red uptake assay IC50
[18] = read-out: Virus yield reduction assay IC50
[19] = read-out: Neutral red uptake assay EC50 ± S.D.
[20] = read-out: VYR assay EC90 ± S.D.
[21] = read-out: Neutral red uptake assay IC50 ± S.D.
[22] = Severe acute respiratory syndrome coronavirus, Vero 76, read-out: Neutral red uptake assay EC50
[23] = Severe acute respiratory syndrome coronavirus, Vero 76, read-out: Neutral red uptake assay EC50 ± S.D.
[24] = Severe acute respiratory syndrome coronavirus, Vero 76, read-out: VYR assay EC90 ± S.D.
[25] = Severe acute respiratory syndrome coronavirus, Vero 76, read-out: Virus yield reduction assay EC90
[26] = Chlorocebus sabaeus, Vero 76, read-out: Neutral red uptake assay IC50 ± S.D.
[27] = Chlorocebus sabaeus, Vero 76, read-out: Virus yield reduction assay IC50
[28] = Chlorocebus sabaeus, Vero 76, read-out: Neutral red uptake assay IC50

In the case of `OCCCN1c2ccccc2Sc2ccc(Cl)cc21` [2-Chloro-10-(3-chloropropanol)-10H-phenothiazine], the “Inhibition of virus replication in vitro (in words)” value (shortened to “Inhibition … in vitro (in words)”) [1] is reported as “essentially inactive”, the “Neutral red uptake assay SI” value [1] is reported as <1 and the EC50 [1, 15] is reported as 23 ± 11 µM. For the same molecule, the “Virus yield reduction assay SI” value [2] was <1, the EC90 [2, 16] was 27 ± 16.8 µM and the IC50 [3, 17] was 20.8 ± 8.1 µM. It also gave an IC50 [3, 18] of 20.8 ± 8.1 µM.
In the case of `CN1CCCC1CN1c2ccccc2Sc2ccccc21.Cl` (stereo not shown) [10-(1-Methyl-2-pyrrolidinymethyl)-phenothiazine·HCl], the EC50 [4, 19] is reported as 24.3 ± 7.4 µM, the EC50 [5, 19] is reported as 19 ± 2.6 µM and the EC50 [6, 19] is reported as 28.5 ± 8.1 µM. For the same molecule, the EC90 [2, 20] was 28.3 ± 12.9 µM, the EC90 [2, 16] was 16.9 ± 9.7 µM and the EC90 [7, 20] was 23.7 ± 6 µM. It also gave an EC90 [8, 20] of 31.3 ± 14.2 µM, an EC90 [9, 20] of 41.7 ± 4 µM and an IC50 [3, 17] of 39.9 ± 0.2 µM. The IC50 [3, 21] was 39.7 µM and 32.3 µM and 48 µM and 42.3 µM and the IC50 [3, 18] was 39.9 ± 0.2 µM.
In the case of `CC(=O)c1ccc2c(c1)N(CCCN1CCN(CCO)CC1)c1ccccc1S2` [Acetophenazine maleate], the EC50 [1, 22] is reported as 6.6 ± 3.3 µM, the EC50 [1, 23] is reported as 8.1 ± 1.4 µM and the EC50 [5, 23] is reported as 9.6 ± 7.6 µM. It also gave an EC50 [6, 23] of 11.5 ± 3.7 µM, an EC90 [2, 24] of 12.3 ± 2.1 µM and an EC90 [2, 25] of 10 ± 5 µM. It also gave an EC90 [7, 24] of 10 ± 5.2 µM, an EC90 [8, 24] of 11.2 ± 3.2 µM and an EC90 [9, 24] of 13 µM. For the same molecule, the IC50 [3, 26] was 14.3 ± 6.4 µM, the IC50 [3, 27] was 13.2 ± 1.6 µM and the IC50 [3, 21] was 18 µM and 15.5 µM and 13.7 µM.
In the case of `CC(C)C[C@H](NC(=O)OCc1ccccc1)C(=O)N[C@@H](CC(C)C)C(=O)N[C@@H](Cc1ccc(O)cc1)C(=O)CF` [Calpain Inhibitor IV] (HELM PEPTIDE1{[O=C(OCc1ccccc1)[*:2]].L.L.Y.[FC[*:1]]}$$$$V2.0), the “Inhibition … in vitro (in words)” value [1] is reported as “inhibited virus replication as expected”, the “Neutral red uptake assay SI” value [1] is reported as 9.4 and the EC50 [1, 15] is reported as 2.6 µM. The EC50 [1, 19] was 2.6 ± 0.5 µM, the “Neutral red uptake assay SI” value [4] was 9.5 and the EC50 [4, 19] was 4.6 ± 2.1 µM. The EC50 [5, 19] was 2.6 ± 1.4 µM, the “Neutral red uptake assay SI” value [6] was 8.3 and the EC50 [6, 19] was 5.4 ± 1.4 µM. The “Virus yield reduction assay SI” value [2] was 3.3, the EC90 [2, 20] was 7.2 ± 0.9 µM and the EC90 [2, 16] was 7.2 µM. The EC90 [7, 20] was 6.5 ± 3.6 µM, the EC90 [8, 20] was 6.5 ± 3.6 µM and the EC90 [9, 20] was 9.6 ± 3.1 µM. For the same molecule, the IC50 [3, 17] was 24.7 ± 7 µM, the IC50 [3, 21] was 24.7 µM and 44 µM and 30 µM and 45 µM and the IC50 [3, 18] was 33 ± 4.1 µM.
With `CN(C)CC/C=C1/c2ccccc2Sc2ccc(Cl)cc21` [Chlorprothixene] the “Neutral red uptake assay SI” value [1] was 1.9 and 1.4, the EC50 [1, 22] was 9.5 ± 5.7 µM and the EC50 [1, 23] was 12 ± 3.5 µM. The “Neutral red uptake assay SI” value [4] was 1.2, the EC50 [4, 23] was 11.1 ± 3.4 µM and the “Neutral red uptake assay SI” value [5] was 1.5. The EC50 [5, 23] was 12.6 ± 6.5 µM, the “Neutral red uptake assay SI” value [6] was 1.2 and the EC50 [6, 23] was 12.9 ± 3.6 µM. The “Virus yield reduction assay SI” value [2] was 1.8, the EC90 [2, 24] was 10.5 ± 5.2 µM and the EC90 [2, 25] was 10.4 ± 4.2 µM. It also gave an EC90 [7, 24] of 12.3 ± 0.6 µM, an EC90 [8, 24] of 12.1 ± 4.2 µM and an EC90 [9, 24] of 13 ± 1 µM. For the same molecule, the IC50 [3, 26] was 13 ± 2 µM, the IC50 [3, 27] was 18.3 ± 3.4 µM and the IC50 [3, 21] was 18.5 µM and 15.8 µM and 16.7 µM.
In the case of `CCN(CC)C(C)CN1c2ccccc2Sc2ccccc21` (stereo not shown) [Ethopropazine], the “Neutral red uptake assay SI” value [1] is reported as 2.0, the EC50 [1, 22] is reported as 30.5 ± 27.5 µM and the “Virus yield reduction assay SI” value [2] is reported as 1.5. For the same molecule, the EC90 [2, 25] was 42 µM, the IC50 [3, 28] was 61.3 ± 34.7 µM and the IC50 [3, 27] was 61.3 ± 34.7 µM.
In the case of `COc1ccc2c(c1)N(C[C@H](C)CN(C)C)c1ccccc1S2` [Methotrimeprazine], the “Neutral red uptake assay SI” value [1] is reported as 1.4, the EC50 [1, 22] is reported as 19 ± 8.1 µM and the “Virus yield reduction assay SI” value [2] is reported as 1.7. The EC90 [2, 25] was 12.3 ± 1.7 µM, the IC50 [3, 28] was 26 ± 10.8 µM and the IC50 [3, 27] was 21 ± 5.4 µM.
In the case of `OCCN1CCN(CCCN2c3ccccc3Sc3ccc(Cl)cc32)CC1` [Perphenazine], the “Neutral red uptake assay SI” value [1] is reported as 1.6, the EC50 [1, 15] is reported as 9.7 ± 1.2 µM and the “Virus yield reduction assay SI” value [2] is reported as 1.9. For the same molecule, the IC50 [3, 27] was 15.8 ± 3.4 µM.
With `CCOS(=O)(=O)[O-].CC[n+]1c2ccccc2nc2ccccc21` [Phenazine ethosulfate] the “Neutral red uptake assay SI” value [1] was 1.3, the EC50 [1, 15] was 5.2 ± 2.9 µM and the “Virus yield reduction assay SI” value [2] was 1.1. The EC90 [2, 16] was 6.1 ± 4.3 µM, the IC50 [3, 17] was 6.6 ± 4.7 µM and the IC50 [3, 18] was 6.6 ± 4.7 µM.
With `c1ccc2c(c1)Nc1ccccc1S2` [Phenothiazine] the “Neutral red uptake assay SI” value [1] was 2.6 and the IC50 [3, 28] was 56.5 ± 61.5 µM.
For `c1ccc2c(c1)Oc1ccccc1S2` [Phenoxathiin], the “Neutral red uptake assay SI” value [1] was 1.1, the EC50 [1, 22] was 763 ± 475 µM and the “Virus yield reduction assay SI” value [2] was 1.3. For the same molecule, the EC90 [2, 25] was 752 ± 497 µM, the IC50 [3, 28] was 858 ± 208 µM and the IC50 [3, 27] was 968 ± 65 µM.
For `c1ccc2c(c1)Nc1ccccc1O2` [Phenoxazine], the “Inhibition … in vitro (in words)” value [1] was “essentially inactive”, the “Neutral red uptake assay SI” value [1] was <1 and the IC50 [3, 28] was 74.5 ± 20.2 µM.
With `CN(C)CCCN1c2ccccc2Sc2ccccc21` [Promazine, 10-(3-(dimethylamino)propyl)phenothiazine] the “Neutral red uptake assay SI” value [1] was 1.2 and <1, the EC50 [1, 22] was 10.8 ± 8.1 µM and the EC50 [1, 23] was 14 ± 6.1 µM. The “Neutral red uptake assay SI” value [4] was 1.6, the EC50 [4, 23] was 21 ± 15.4 µM and the “Neutral red uptake assay SI” value [5] was 2.2. For the same molecule, the EC50 [5, 23] was 15.6 ± 8.5 µM, the “Neutral red uptake assay SI” value [6] was 1.5 and the EC50 [6, 23] was 22.6 ± 12.8 µM. For the same molecule, the “Virus yield reduction assay SI” value [2] was 2.1, the EC90 [2, 24] was 7.8 ± 3.1 µM and the EC90 [2, 25] was 8.3 ± 2.8 µM. It also gave an EC90 [7, 24] of 11.6 ± 6.3 µM, an EC90 [8, 24] of 16.5 ± 11.1 µM and an EC90 [9, 24] of 20.7 ± 9.5 µM. The IC50 [3, 28] was 13.5 ± 6.2 µM, the IC50 [3, 27] was 18.2 ± 14.6 µM and the “Virucidal activity (virus titer reduction after exposure)” value [10] was “did not result in virus titer reduction”. The “Duration of virus replication in the lungs (in words)” value [11] was “prolonged virus replication to 14 days; also recorded: significantly prolonged”, the “Virus titer ± S.D., Day 3” value [11] was 5.6 ± 1.0 Log10 CCID50/g and 5.6 ± 0.4 Log10 CCID50/g and 5.7 ± 0.3 Log10 CCID50/g and 5.6 ± 0.0 Log10 CCID50/g and 5.8 ± 0.4 Log10 CCID50/g and 6.0 ± 0.6 Log10 CCID50/g and the “Virus titer ± S.D., Day 14” value [11] was 3.4 ± 0.1 Log10 CCID50/g and 3.4 ± 0.0 Log10 CCID50/g. For the same molecule, the “Inhibition of virus replication in the lungs, therapeutic treatment (in words)” value ([11]; ip) was “not efficacious”, the “Reduction of viral replication in the lungs at day 3 (in words)” value ([11]; ip) was “did not reduce virus lung titers; also recorded: no significant reduction” and the “Virus titer ± S.D., Day 3” value ([11]; ip) was 5.6 ± 0.0 Log10 CCID50/g and 6.0 ± 0.6 Log10 CCID50/g and 5.4 ± 0.1 Log10 CCID50/g. The “Virus titer ± S.D., Day 7” value ([11]; ip) was <0.75 Log10 CCID50/g, the Lethality ([12]; BALB/c) was “lethal to all mice by day 3” and the Lethality [12] was “somewhat lethal”. For the same molecule, the “Histopathological examination of lungs” value [13] was “no signs of pathology” and the LD50 [14] was 140 mg/(kg day).
For `CCC(=O)c1ccc2c(c1)N(CCCN(C)C)c1ccccc1S2` [Propionylpromazine·HCl], the “Inhibition … in vitro (in words)” value [1] was “essentially inactive”, the “Neutral red uptake assay SI” value [1] was <1 and the EC50 [1, 22] was 24.3 ± 15.6 µM. The “Virus yield reduction assay SI” value [2] was 1.4 and the IC50 [3, 27] was 19.3 ± 2.2 µM.
With `CN1CCN(CCCN2c3ccccc3Sc3ccc(C(F)(F)F)cc32)CC1` [Trifluoperazine dimaleate] the “Neutral red uptake assay SI” value [1] was 1.3, the EC50 [1, 22] was 7.3 ± 4.7 µM and the “Virus yield reduction assay SI” value [2] was <1. For the same molecule, the EC90 [2, 16] was 10.2 ± 4.4 µM, the IC50 [3, 28] was 9.5 ± 3.1 µM and the IC50 [3, 27] was 8 ± 2.1 µM.
With `CN(C)CCCN1c2ccccc2Sc2ccc(C(F)(F)F)cc21.Cl` [Trifluopromazine·HCl] the “Neutral red uptake assay SI” value [1] was 1.4, the EC50 [1, 15] was 13.3 ± 5.8 µM and the “Virus yield reduction assay SI” value [2] was 1.4. The EC90 [2, 16] was 12.8 ± 1.9 µM, the IC50 [3, 17] was 18 ± 5.6 µM and the IC50 [3, 18] was 18 ± 5.6 µM.
